6 compounds from paper PMC3108484 (Frontiers in Pharmacology, 2011) can be followed below.

A word on the Ki: it is the equilibrium dissociation constant of an inhibitor or competing ligand from its target. A word on the inhibition: it is the change of the read-out against control, counted positive when it falls. Read a low inhibition as little suppression. As a reminder, the EC50 is the concentration needed to bring the measured effect to its halfway point.

Structures are written as SMILES. Read-outs that look alike come from different tables or passages of the source.

One series concerns rat esophagus. Kind of series: Rat esophageal relaxation. The series is classed as in vivo. The conditions noted are these: cumulative i.d. dosing, anesthetized rats.
The target of another series is 5-HT4 receptor (Cavia porcellus, UniProt O70528). As to the kind of experiment: Guinea pig colonic longitudinal muscle/myenteric plexus. As to conditions: for Guinea pig colonic LMMP contractile activity IA (mean % 5-HT max ± SEM): isolated tissue, % of primed 5-HT (0.3 μM) maximum.
Chain of 5-HT4 receptor (O70528 whole entry): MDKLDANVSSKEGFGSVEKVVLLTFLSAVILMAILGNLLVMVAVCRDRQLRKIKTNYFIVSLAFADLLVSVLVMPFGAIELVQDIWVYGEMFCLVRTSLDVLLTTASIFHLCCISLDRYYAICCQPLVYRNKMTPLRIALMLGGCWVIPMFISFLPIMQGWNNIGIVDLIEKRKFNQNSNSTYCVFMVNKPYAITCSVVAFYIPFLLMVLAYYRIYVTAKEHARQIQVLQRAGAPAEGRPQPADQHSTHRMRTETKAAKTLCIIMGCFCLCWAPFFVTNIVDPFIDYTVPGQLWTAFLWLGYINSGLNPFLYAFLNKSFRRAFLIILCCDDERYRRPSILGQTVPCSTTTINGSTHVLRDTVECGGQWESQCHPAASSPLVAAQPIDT
Series [1] has as its target human 5-HT4(c) (h5-HT4(c)) receptor (Homo sapiens, UniProt Q13639). As to the kind of experiment: biochemical.
Series [2] relates to canine antrum, duodenum, and jejunum. Kind of series: Dog gastrointestinal contractility. The format is in vivo. The conditions noted are these: oral, conscious fasted dogs; TD-8954 0.01 and 0.03 mg/kg, tegaserod 0.1 and 0.3 mg/kg.
Another series has as its target human 5-HT4(c) receptor (Homo sapiens, UniProt Q13639). The format is cell-based. As to conditions: for pKb of GR113808 (Schild regression): GR113808 0.6, 1.7, or 5 nM, 95% CI.
The next series addresses hERG potassium channel (Homo sapiens, UniProt Q12809). Kind of series: in vitro.

Chain of human 5-HT4(c) receptor (Q13639 1-380 isoform Q13639-4): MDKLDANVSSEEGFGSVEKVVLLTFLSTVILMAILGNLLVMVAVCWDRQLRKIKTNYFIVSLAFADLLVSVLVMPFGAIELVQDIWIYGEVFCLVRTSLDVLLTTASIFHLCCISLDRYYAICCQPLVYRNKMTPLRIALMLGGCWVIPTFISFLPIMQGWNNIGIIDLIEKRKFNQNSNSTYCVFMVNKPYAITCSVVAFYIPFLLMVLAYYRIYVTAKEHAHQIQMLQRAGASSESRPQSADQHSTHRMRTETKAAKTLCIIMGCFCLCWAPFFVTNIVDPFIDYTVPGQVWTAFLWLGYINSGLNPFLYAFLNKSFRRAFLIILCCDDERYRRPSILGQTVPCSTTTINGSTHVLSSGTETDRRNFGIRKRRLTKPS
Chain of human 5-HT4(c) (h5-HT4(c)) receptor (Q13639 1-380 isoform Q13639-4): as above
Chain of hERG potassium channel (Q12809 whole entry): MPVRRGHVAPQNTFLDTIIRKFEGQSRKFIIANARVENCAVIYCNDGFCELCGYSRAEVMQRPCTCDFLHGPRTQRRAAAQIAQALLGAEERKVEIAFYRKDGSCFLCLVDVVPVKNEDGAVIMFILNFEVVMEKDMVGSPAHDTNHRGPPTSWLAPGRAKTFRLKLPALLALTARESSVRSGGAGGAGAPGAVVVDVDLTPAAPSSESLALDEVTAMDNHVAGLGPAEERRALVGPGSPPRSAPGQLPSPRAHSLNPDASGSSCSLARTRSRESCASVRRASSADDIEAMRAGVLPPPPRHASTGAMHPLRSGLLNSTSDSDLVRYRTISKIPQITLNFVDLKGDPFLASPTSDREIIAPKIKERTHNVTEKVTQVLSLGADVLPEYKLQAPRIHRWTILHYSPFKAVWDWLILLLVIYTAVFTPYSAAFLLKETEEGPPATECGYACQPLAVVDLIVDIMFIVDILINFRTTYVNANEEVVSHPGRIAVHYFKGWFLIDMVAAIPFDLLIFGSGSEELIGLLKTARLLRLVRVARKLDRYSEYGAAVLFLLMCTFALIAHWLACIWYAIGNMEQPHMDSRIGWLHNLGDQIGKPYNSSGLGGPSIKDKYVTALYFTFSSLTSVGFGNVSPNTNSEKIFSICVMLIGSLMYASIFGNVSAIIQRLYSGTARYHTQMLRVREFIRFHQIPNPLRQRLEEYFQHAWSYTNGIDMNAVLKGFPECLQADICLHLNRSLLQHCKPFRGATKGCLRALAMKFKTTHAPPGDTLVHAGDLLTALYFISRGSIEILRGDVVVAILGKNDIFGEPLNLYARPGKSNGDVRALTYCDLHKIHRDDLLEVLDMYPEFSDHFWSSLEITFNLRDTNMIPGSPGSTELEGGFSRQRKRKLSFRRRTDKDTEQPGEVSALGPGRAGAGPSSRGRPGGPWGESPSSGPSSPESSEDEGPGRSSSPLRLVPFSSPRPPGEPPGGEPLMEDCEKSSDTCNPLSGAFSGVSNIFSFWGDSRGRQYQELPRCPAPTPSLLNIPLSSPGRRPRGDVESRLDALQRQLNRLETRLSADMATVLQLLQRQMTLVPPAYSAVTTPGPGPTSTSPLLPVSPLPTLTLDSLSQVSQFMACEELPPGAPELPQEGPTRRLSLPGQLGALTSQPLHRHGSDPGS

Consider `COCCCN1CCC(NC(=O)c2cc(Cl)c(N)c3c2OCC3)CC1` [Prucalopride, prucalopride], for which, in the series on rat esophagus, the “dose associated with a relaxation response of 0.1 mm” value (“dose associated” for short) was determined as 0.30 mg/kg.
For `[H]/N=C(/NCCCCC)N/N=C/c1c[nH]c2ccc(OC)cc12` [Tegaserod, tegaserod], the “dose associated” value with rat esophagus is on record as 2.43 mg/kg. The “Guinea pig colonic LMMP contractile activity IA (mean % 5-HT max ± SEM)” value at 5-HT4 receptor turned out to be 45 ± 13 % 5-HT max; at 5-HT4 receptor (listed as tegaserod), 45 % 5-HT max. For the same compound, the inhibitory constant (Ki) in series [1] was 2.51 nM. In addition, the “effect on contractility in the antrum, duodenum, and jejunum” value in series [2] was “increases in contractility”.
For `Cn1cc(C(=O)OCC2CCN(CCNS(C)(=O)=O)CC2)c2ccccc21` [GR113808], the “pKb of GR113808 (Schild regression)” value was 10.3 (95% CI: 10.2–10.4) on human 5-HT4(c) receptor (against 5-HT, cAMP accumulation) and 10.3 (95% CI: 10.2–10.5) on human 5-HT4(c) receptor (against TD-8954, cAMP accumulation).
For the compound `CCCCN1CCC(CNC(=O)c2c3n(c4ccccc24)CCCO3)CC1` [piboserod], the “shift of the TD-8954 concentration–response curve” value at 5-HT4 receptor (piboserod 0.3 μM, guinea pig colonic LMMP) was found to be 614 fold.
As for `COc1cc(N)c(Cl)cc1C(=O)NC1CCN(CCCOc2ccc(F)cc2)CC1OC` (stereo not shown) [Cisapride, cisapride], in the series with rat esophagus, the “dose associated” value amounted to 2.66 mg/kg. The “Guinea pig colonic LMMP contractile activity IA (mean % 5-HT max ± SEM)” value on 5-HT4 receptor was 75 ± 3 % 5-HT max; on 5-HT4 receptor (listed as cisapride) it was 75 % 5-HT max. This compound showed an inhibition at 0.02 µM on hERG potassium channel of 65%.
As for `CCOc1cc(N)c(Cl)cc1C(=O)NCC1CN(Cc2ccc(F)cc2)CCO1` (stereo not shown) [Mosapride, mosapride], in the series on rat esophagus, the “dose associated” value came out at 4.37 mg/kg. Also, the EC50 is 3980 nM at 5-HT4 receptor and 501 nM at human 5-HT4(c) receptor. For the same compound, the results for the “Guinea pig colonic LMMP contractile activity IA (mean % 5-HT max ± SEM)” value at 5-HT4 receptor and on 5-HT4 receptor (listed as mosapride) were 37 ± 2 % 5-HT max and 37 % 5-HT max, respectively. In series [1], this compound gave a Ki of 158 nM.
